From patent publication US8263606B2 (Xenon Pharmaceuticals Inc., priority 2008, dated 2012)

Assays:
[1] = system: sodium channel; experiment: Guanidine influx assay (14C-guanidine radiotracer flux, in vitro); type: cell-based, human or rat; conditions: guanidine influx assay using a known cell line that expresses a sodium channel
Procedure, shortened: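 Radiotracer read-out: intracellular 14C-guanidine counted after washing with guanidine-supplemented low-sodium buffer. Cells expressing human or rat channels get test agent plus aconitine activator and tracer, incubated at ambient temperature. Dilution series centred on 1 μM; IC50 by sigmoidal dose-response fit.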

[2] = molecular target: CYP3A4 (Homo sapiens, UniProt P08684); experiment: Cytochrome P450 (CYP450) Inhibition Assay, CYP3A4 (Vivid fluorescence, BOMCC substrate); conditions: human, P450 Baculosomes (recombinant CYP3A4), probe BOMCC (Vivid substrate)
Sequence of CYP3A4 (P08684 whole entry): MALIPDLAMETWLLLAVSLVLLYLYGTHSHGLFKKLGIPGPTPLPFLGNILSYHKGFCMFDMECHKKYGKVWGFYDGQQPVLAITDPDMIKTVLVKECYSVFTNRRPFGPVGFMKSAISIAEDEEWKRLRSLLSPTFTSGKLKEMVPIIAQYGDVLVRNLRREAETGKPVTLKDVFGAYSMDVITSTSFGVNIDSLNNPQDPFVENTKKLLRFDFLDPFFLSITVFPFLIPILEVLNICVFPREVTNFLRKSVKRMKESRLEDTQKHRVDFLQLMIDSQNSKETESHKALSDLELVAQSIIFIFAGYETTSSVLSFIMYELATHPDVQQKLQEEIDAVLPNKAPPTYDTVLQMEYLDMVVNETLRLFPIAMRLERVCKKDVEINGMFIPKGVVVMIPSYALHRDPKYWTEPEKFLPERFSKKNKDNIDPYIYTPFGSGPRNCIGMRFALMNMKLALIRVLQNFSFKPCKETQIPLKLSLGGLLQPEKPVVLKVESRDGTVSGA

| SMILES | IC50 ([1]; activity level class) | melting point | inhibition at 10 µM [2] | IC50 [1] |
| --- | --- | --- | --- | --- |
| Cc1nc2cc3c(cc2o1)C1(CO3)C(=O)Nc2ccccc21 (stereo not drawn) [Example 3.12, 2-methylspiro[furo[2,3-f][1,3]benzoxazole-7,3′-indol]-2′(1′H)-one] | ≥ 10000 nM | 242 to 244 °C | < 50% |  |
| COc1cc(CN2C(=O)C3(COc4cc5c(cc43)OCCO5)c3ccccc32)cc(OC)c1 (stereo not drawn) [Example 4.47, 1′-(3,5-dimethoxybenzyl)-2,3-dihydrospiro[furo[2,3-g][1,4]benzodioxine-8,3′-indol]-2′(1′H)-one] | 1 to 100 nM | 192 to 195 °C | > 50% |  |
| COc1ccc2c(c1)OCC21C(=O)N(Cc2ccccn2)c2ccccc21 (stereo not drawn) [Example 9.33, 6-methoxy-1′-(pyridin-2-ylmethyl)-2H-spiro[benzofuran-3,3′-indolin]-2′-one] | 1 to 100 nM | 122 to 123 °C | < 50% |  |
| O=C1N(Cc2ccc(Cl)s2)c2cccc(Cl)c2C12COc1cc3c(cc12)OCO3 (stereo not drawn) [Example 4.89, 4′-chloro-1′-[(5-chloro-2-thienyl)methyl]spiro[furo[2,3-f][1,3]benzodioxole-7,3′-indol]-2′(1′H)-one] | 1 to 100 nM | 167 to 168 °C | > 50% |  |
| CCOCCNC(=O)c1ccc(CN2C(=O)C3(COc4cc5c(cc43)CCO5)c3ccccc32)cc1 (stereo not drawn) [Example 12.41, N-(2-ethoxyethyl)-4-[(2′-oxo-5,6-dihydrospiro[benzo[1,2-b:5,4-b′]difuran-3,3′-indol]-1′(2′H)-yl)methyl]benzamide] |  | 84 to 85 °C | > 50% | 100 to 1000 nM |
| O=C1N(Cc2ccc(F)cn2)c2ccccc2C12COc1cc3c(cc12)OCCO3 (stereo not drawn) [Example 4.100, 1-[(5-fluoropyridin-2-yl)methyl]-2,3-dihydrospiro[furo[2,3-g][1,4]benzodioxine-8,3′-indol]-2′(1′H)-one] | 1 to 100 nM | 174 to 176 °C | < 50% |  |
| O=C1N(Cc2cc(-c3ccc(Cl)cc3)oc2C(F)(F)F)c2ccccc2C12COc1cc3c(cc12)OCO3 (stereo not drawn) [Example 1.15, 1′-{[5-(4-chlorophenyl)-2-(trifluoromethyl)furan-3-yl]methyl}spiro[furo[2,3-f][1,3]benzodioxole-7,3′-indol]-2′(1′H)-one] | 1000 to 10000 nM | 114 to 116 °C | < 50% |  |
| Cl.N#CCCNCCCN1C(=O)C2(COc3cc4c(cc32)CCO4)c2ccccc21 (stereo not drawn) [Example 15.4, 3-{[3-(2′-oxo-5,6-dihydrospiro[benzo[1,2-b:5,4-b′]difuran-3,3′-indol]-1′(2′H)-yl)propyl]amino}propanenitrile hydrochloride] |  | 214 to 216 °C | > 50% | 100 to 1000 nM |
| CC(C)(C)c1nc(CN2C(=O)C3(COc4cc5c(cc43)OCO5)c3ccccc32)no1 (stereo not drawn) [Example 11.23, 1′-[(5-tert-butyl-1,2,4-oxadiazol-3-yl)methyl]spiro[furo[2,3-f][1,3]benzodioxole-7,3′-indol]-2′(1′H)-one] |  | 183 to 185 °C | > 50% | 1 to 100 nM |
| O=C1N(c2ccc(F)cc2)c2ccccc2C12COc1cc3c(cc12)OCCO3 (stereo not drawn) [Example 2.45, 1′-(4-fluorophenyl)-2,3-dihydrospiro[furo[2,3-g][1,4]benzodioxine-8,3′-indol]-2′(1′H)-one] | 1 to 100 nM | 210 to 212 °C | < 50% |  |
| CN(C(=O)CN1C(=O)C2(COc3cc4c(cc32)CCO4)c2ccccc21)c1ccccc1 (stereo not drawn) [Example 12.52, N-methyl-2-(2′-oxo-5,6-dihydrospiro[benzo[1,2-b:5,4-b′]difuran-3,3′-indol]-1′(2′H)-yl)-N-phenylacetamide] |  | 234 to 238 °C | > 50% | 100 to 1000 nM |
| O=C1N(Cc2ccc(N/C=N\O)nc2)c2ccccc2C12COc1cc3c(cc12)OCCO3 (stereo not drawn) [Example 38, N′-hydroxy-N-{5-[(2′-oxo-2,3-dihydrospiro[furo[2,3-g][1,4]benzodioxine-8,3′-indol]-1′(2′H)-yl)methyl]pyridin-2-yl}imidoformamide] |  | 231 to 232 °C | < 50% | 1 to 100 nM |
| COc1ccc(CN2C(=O)C3(COc4cc(O)c(C#N)cc43)c3ccccc32)cc1 (stereo not drawn) [Example 2.39, 6-hydroxy-1′-(4-methoxybenzyl)-2′-oxo-1′,2′-dihydrospiro[1-benzofuran-3,3′-indole]-5-carbonitrile] | 1000 to 10000 nM | 112 to 114 °C | > 50% |  |
| O=C1Nc2cc(F)ccc2C12COc1cc3c(cc12)CCO3 (stereo not drawn) [Example 3.5, 6′-fluoro-5,6-dihydrospiro[benzo[1,2-b:5,4-b′]difuran-3,3′-indol]-2′(1′H)-one] | 1000 to 10000 nM | 249 to 251 °C | > 50% |  |
| O=C1Nc2c(Br)cccc2C12COc1cc3c(cc12)OCO3 (stereo not drawn) [Example 1.5, 7′-bromospiro[furo[2,3-f][1,3]benzodioxole-7,3′-indol]-2′(1′H)-one] | 1 to 100 nM | 240 °C (dec.) | > 50% |  |
| Cc1noc2cc3c(cc12)C1(CO3)C(=O)N(Cc2cccnc2)c2ccccc21 (stereo not drawn) [Example 9.25, 3-methyl-1′-(pyridin-3-ylmethyl)spiro[furo[3,2-f][1,2]benzisoxazole-5,3′-indol]-2′(1′H)-one] | 1 to 100 nM | 176 to 177 °C | > 50% |  |
| COC(=O)c1cccc(CN2C(=O)C3(COc4cc5c(cc43)CCO5)c3ccccc32)c1 (stereo not drawn) [Example 9.15, methyl 3-[(2′-oxo-5,6-dihydrospiro[benzo[1,2-b:5,4-b′]difuran-3,3′-indol]-1′(2′H)-yl)methyl]benzoate] | 1 to 100 nM | 97 to 98 °C | > 50% |  |
| CCCCCN1C(=O)[C@]2(COc3cc4c(cc32)CCO4)c2ccccc21 [Example 5.3, (3R)-1′-pentyl-5,6-dihydrospiro[benzo[1,2-b:5,4-b′]difuran-3,3′-indol]-2′(1′H)-one] | 1000 to 10000 nM | 128 to 129 °C | > 50% |  |
| CCc1ccccc1NC(=O)c1ccc(CN2C(=O)C3(COc4cc5c(cc43)CCO5)c3ccccc32)cc1 (stereo not drawn) [Example 12.34, N-(2-ethylphenyl)-4-[(2′-oxo-5,6-dihydrospiro[benzo[1,2-b:5,4-b′]difuran-3,3′-indol]-1′(2′H)-yl)methyl]benzamide] |  | 203 to 204 °C | > 50% | 1000 to 10000 nM |
| Nc1ccc(CN2C(=O)C3(COc4cc5c(cc43)OCCO5)c3ccccc32)cn1 (stereo not drawn) [Example 37, 1′-[(6-aminopyridin-3-yl)methyl]-2,3-dihydrospiro[furo[2,3-g][1,4]benzodioxine-8,3′-indol]-2′(1′H)-one] |  | 117 to 119 °C | < 50% | 1 to 100 nM |
| N#Cc1cccc2c1NC(=O)C21COc2cc3c(cc21)OCO3 (stereo not drawn) [Example 11.75, 2′-oxo-1′,2′-dihydrospiro[furo[2,3-f][1,3]benzodioxole-7,3′-indole]-7′-carbonitrile] |  | 205 to 207 °C | > 50% | 100 to 1000 nM |
| O=C1N(Cc2ccccn2)c2cccc(-c3cnc4ccccc4c3)c2C12COc1cc3c(cc12)OCCO3 (stereo not drawn) [Example 4.102, 1-(pyridin-2-ylmethyl)-4′-quinolin-3-yl-2,3-dihydrospiro[furo[2,3-g][1,4]benzodioxine-8,3′-indol]-2′(1′H)-one] | 100 to 1000 nM | 228 to 230 °C | > 50% |  |
| N#Cc1cc2c(cc1O)OCC21C(=O)N(Cc2ccccc2C(F)(F)F)c2ccccc21 (stereo not drawn) [Example 45.1, 6-hydroxy-2′-oxo-1′-[2-(trifluoromethyl)benzyl]-1′,2′-dihydrospiro[1-benzofuran-3,3′-indole]-5-carbonitrile] |  | 122 to 124 °C | < 50% | 1000 to 10000 nM |
| O=C1N(CCC(O)C(F)(F)F)c2ccccc2C12COc1cc3c(cc12)CCO3 (stereo not drawn) [Example 14.5, 1′-(4,4,4-trifluoro-3-hydroxybutyl)-5,6-dihydrospiro[benzo[1,2-b:5,4-b′]difuran-3,3′-indol]-2′(1′H)-one] |  | 124 to 126 °C | > 50% | 100 to 1000 nM |
| COC(=O)c1cccc(CN2C(=O)C3(COc4cc5c(cc43)OCCO5)c3ccccc32)c1 (stereo not drawn) [Example 9.53, methyl 3-[(2′-oxo-2,3-dihydrospiro[furo[2,3-g][1,4]benzodioxine-8,3′-indol]-1′(2′H)-yl)methyl]benzoate] |  | 89 to 97 °C | > 50% | 1 to 100 nM |
| COCCOc1ccc2c(c1)C1(CO2)C(=O)N(Cc2ccccn2)c2ccccc21 (stereo not drawn) [Example 5.35, 5-(2-methoxyethoxy)-1′-(pyridin-2-ylmethyl)spiro[1-benzofuran-3,3′-indol]-2′(1′H)-one] | 100 to 1000 nM | 140 to 142 °C | < 50% |  |
| O=C1N(Cc2nc(C(F)(F)F)cs2)c2ccccc2C12COc1cc3c(cc12)OCCO3 (stereo not drawn) [Example 5.23, 1′-{[4-(trifluoromethyl)-1,3-thiazol-2-yl]methyl}-2,3-dihydrospiro[furo[2,3-g][1,4]benzodioxine-8,3′-indol]-2′(1′H)-one] | 1 to 100 nM | 169 to 170 °C | > 50% |  |
| CCCCN(C)CCCN1C(=O)C2(COc3cc4c(cc32)CCO4)c2ccccc21.Cl (stereo not drawn) [Example 15.2, 1′-{3-[butyl(methyl)amino]propyl}-5,6-dihydrospiro[benzo[1,2-b:5,4-b′]difuran-3,3′-indol]-2′(1′H)-one hydrochloride] |  | 96 to 99 °C | > 50% | 1000 to 10000 nM |
